Measured values from US8124605B2, “Compositions and methods for modulating a kinase cascade” (Kinex Pharmaceuticals, LLC, priority 2007, dated 2012).

Key:
Assay type in all cases: cell-based
[1] = tested on: human colon tumor cell line HT-29; assay: Cell proliferation assay (MTT assay), GI50; details: HT-29, 72 h, 3 days incubation, read-out: GI50 HT29
Experimental: (§1) The GI50s for several of the compounds of the invention are assayed as described herein.
(§2) Cell line and culture media—the human colon tumor cell line HT-29 was obtained from Dr. Irwin Gelman (Roswell Park Cancer Institute, Buffalo, N.Y.) and maintained in McCoy's 5A medium supplemented with 2% fetal bovine serum and penicillin-streptomycin. SYF/c-Src527F cell line was also obtained from Dr. Irwin Gelman and maintained in Dulbecco's modified Eagle's medium (DMEM) supplemented with 2% bovine serum and penicillin-streptomycin. Both cell lines were incubated in an atmosphere containing 5% CO2 at 37° C.
(§3) Cell proliferation assay (MTT assay)-HT-29 (7,000 cells) and SYF/c-Src527F (4,000 cells) cells were plated in 120 μl of culture medium per well of 96-well plate. Cells were incubated overnight before drug treatment. Test compounds were diluted in culture medium in a separate 96-well plate to yield 10× concentrations of test dose (50 nM, 500 nM, 5 μM, 50 μM, and 500 μM). 13.3 μl of the 10× compound was added to each well of cells to achieve the final test concentrations (5 nM, 50 nM, 500 nM, 5 μM and 50 μM). After 3 days incubation, 10 μl of MTT (Thiazolyl Blue Tetrazolium Bromide, 5 mg/ml in PBS) was added to each well and incubate for 3 hours at 37° C. After removal of culture medium, 100 μl of isopropanol containing 40 mM HCl was added to each well and incubate for 10 minutes on a shaker to dissolve the MTT formazan. Optical density (OD) at 570 nm was then measured using microplate reader and cell growth inhibition (percentage of growth) by each concentration of drug was calculated as: % growth=100×[(T−T0)/(C−T0)] (T: OD of the test well exposure to test drug; C: OD of the control well without drug treatment; T0: OD at time zero). Growth inhibition curves and GI50 were determined using GraphPad Prism 5 statistical software.

SYF/c-Src527F cell line = assay: Cell proliferation assay (MTT assay), GI50; details: Mus musculus, 72 h, 3 days incubation
Experimental: as §1, §2, §3

JAK1 = biological target: T1, JAK1 (Homo sapiens, UniProt P23458); assay: JAK phosphorylation/activation by flow cytometry, pSTAT6 staining in IL-4 stimulated U-937 cells; details: drug 30 min, then IL-4
T1 construct: U-937 cells, histiocytic lymphoma cell line; endogenous in cells; host or cells: U-937 (ATCC CRL-1593.2)
Experimental: (§4) The protocol used to analyze the effect of compounds of the invention on JAK phosphorylation/activation is adapted from: Krutzik and Nolan, Cytometry Part A 55A:61-70 (2003).
(§5) Briefly, U-937 cells, histiocytic lymphoma cell line; ATCC No. CRL-1593.2, were treated with compounds of the invention or commercial JAK inhibitors. Cells were then stimulated with IL-4, to engage the JAK/STAT signaling pathway. Cells were fixed with formaldehyde to “freeze” the phosphorylation states of intracellular proteins. Cells were next permeabilized, and stained with mAbs directed against the phosphorylated STAT (pSTAT) proteins. The positive shift in fluorescence due to pSTAT staining serves as a surrogate to JAK phosphorylation/activation: no flow cytometric mAbs specific to JAKs exist, so the proximal downstream signaling event, STAT phosphorylation, is measured. A decrease in fluorescence, due to drug incubation prior to IL-4 stimulation, is an indirect indication of JAK inhibition. The following antibodies were used: apSTAT5-PE: monoclonal antibody to the intracellular STAT5a protein phosphorylated at Tyrosine 694; conjugated to the fluorochrome phycoerythrin (PE); BD No. 612567 and apSTAT6-Alex647: monoclonal antibody to the intracellular STAT6 protein phosphorylated at Tyrosine 641; conjugated to the fluorochrome Alexa Fluor 647; BD No. 612601. The detailed protocol is described below:
(§6) Resuspend U-937 cells @ 8×10^5 cells/mL in complete culture medium (RPMI-1640/10% FBS).
(§7) Add 0.5 mL cell suspension to each well of 24-well tissue culture plate.
(§8) Add drug treatment (compounds, controls) for 30 min @ 37° C., 5% CO2.
(§9) Add cytokine/growth factor to stimulate; 15-30 min @ 37° C. (1 μL/0.5 mL cell suspension; IL-4, IL-2, IL-15=20 ng/mL)
(§10) Transfer cells to 5 mL Flow tubes.
(§11) Add 16% Formaldehyde directly to cell culture to obtain final concentration of 1.5% formaldehyde. (47 μL formaldehyde+0.5 mL cell culture)
(§12) Incubate cells in fixative for 15 min @ 37° C., 5% CO2.
(§13) Add 3 mL cold “Staining Media” (PBS/1% BSA) to each tube; centrifuge cells @ 1100 RPM, 3 min. Discard supernatant.
(§14) Resuspend cells with vigorous vortexing in 200 μL ice-cold Methanol.
(§15) Incubate cells on ice, 30 min.
(§16) Wash cells twice in 2 mL “Staining Medium” (centrifuge cells @ 1100 RPM, 3 min). Discard supernatant.
(§17) Add 8 μL of fluorophore-conjugated, phosphoprotein-specific mAbs to cells. Incubate cells at RT, 60 min, in the dark.
(§18) Wash cells with 4 mL Staining Media. Centrifuge cells @ 1100 RPM, 3 min. Discard supernatant.
(§19) Resuspend cells in 350 μL Staining Media.
(§20) Acquire cellular events on BD FACSCalibur cytometer.

JAK3 = biological target: T2, JAK3 (Homo sapiens, UniProt P52333); assay: JAK phosphorylation/activation by flow cytometry, pSTAT5 staining in IL-4 stimulated U-937 cells; details: drug 30 min, then IL-4
T2 construct: U-937 cells, histiocytic lymphoma cell line; endogenous in cells; host or cells: U-937 (ATCC CRL-1593.2)
T2 sequence (P52333 1-1124): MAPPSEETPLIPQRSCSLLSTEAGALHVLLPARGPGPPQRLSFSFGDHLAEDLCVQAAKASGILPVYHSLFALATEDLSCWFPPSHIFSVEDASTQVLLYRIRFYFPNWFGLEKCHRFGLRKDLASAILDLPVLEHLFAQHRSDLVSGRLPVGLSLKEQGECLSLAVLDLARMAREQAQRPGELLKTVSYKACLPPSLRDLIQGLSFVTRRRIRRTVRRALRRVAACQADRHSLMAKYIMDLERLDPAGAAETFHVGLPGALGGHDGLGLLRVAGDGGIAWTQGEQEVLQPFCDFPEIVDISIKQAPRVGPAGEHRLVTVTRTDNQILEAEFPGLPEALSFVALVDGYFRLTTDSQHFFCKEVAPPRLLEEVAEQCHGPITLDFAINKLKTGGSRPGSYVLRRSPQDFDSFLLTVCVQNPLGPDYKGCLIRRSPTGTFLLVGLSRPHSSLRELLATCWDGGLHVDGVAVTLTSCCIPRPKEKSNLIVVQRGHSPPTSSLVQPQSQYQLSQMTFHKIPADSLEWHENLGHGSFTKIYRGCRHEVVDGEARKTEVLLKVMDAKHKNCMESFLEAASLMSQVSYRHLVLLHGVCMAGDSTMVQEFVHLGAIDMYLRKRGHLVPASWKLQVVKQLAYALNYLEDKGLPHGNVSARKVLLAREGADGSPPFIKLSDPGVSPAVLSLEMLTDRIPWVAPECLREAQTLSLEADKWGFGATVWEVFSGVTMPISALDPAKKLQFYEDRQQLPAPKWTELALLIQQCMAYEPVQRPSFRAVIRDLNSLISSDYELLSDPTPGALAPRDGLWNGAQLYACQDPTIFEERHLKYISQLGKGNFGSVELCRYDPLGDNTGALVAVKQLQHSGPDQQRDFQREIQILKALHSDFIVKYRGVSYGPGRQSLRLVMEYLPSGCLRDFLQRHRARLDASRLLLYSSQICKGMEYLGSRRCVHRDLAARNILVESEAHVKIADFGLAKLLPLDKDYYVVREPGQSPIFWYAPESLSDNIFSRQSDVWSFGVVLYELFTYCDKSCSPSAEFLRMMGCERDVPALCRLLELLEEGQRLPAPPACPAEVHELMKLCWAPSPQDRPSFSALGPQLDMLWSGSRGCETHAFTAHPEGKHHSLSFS
Experimental: as §4, §5, §6, §7, §8, §9, §10, §11, §12, §13, §14, §15, §16, §17, §18, §19, §20

T1 sequence (P23458 whole entry): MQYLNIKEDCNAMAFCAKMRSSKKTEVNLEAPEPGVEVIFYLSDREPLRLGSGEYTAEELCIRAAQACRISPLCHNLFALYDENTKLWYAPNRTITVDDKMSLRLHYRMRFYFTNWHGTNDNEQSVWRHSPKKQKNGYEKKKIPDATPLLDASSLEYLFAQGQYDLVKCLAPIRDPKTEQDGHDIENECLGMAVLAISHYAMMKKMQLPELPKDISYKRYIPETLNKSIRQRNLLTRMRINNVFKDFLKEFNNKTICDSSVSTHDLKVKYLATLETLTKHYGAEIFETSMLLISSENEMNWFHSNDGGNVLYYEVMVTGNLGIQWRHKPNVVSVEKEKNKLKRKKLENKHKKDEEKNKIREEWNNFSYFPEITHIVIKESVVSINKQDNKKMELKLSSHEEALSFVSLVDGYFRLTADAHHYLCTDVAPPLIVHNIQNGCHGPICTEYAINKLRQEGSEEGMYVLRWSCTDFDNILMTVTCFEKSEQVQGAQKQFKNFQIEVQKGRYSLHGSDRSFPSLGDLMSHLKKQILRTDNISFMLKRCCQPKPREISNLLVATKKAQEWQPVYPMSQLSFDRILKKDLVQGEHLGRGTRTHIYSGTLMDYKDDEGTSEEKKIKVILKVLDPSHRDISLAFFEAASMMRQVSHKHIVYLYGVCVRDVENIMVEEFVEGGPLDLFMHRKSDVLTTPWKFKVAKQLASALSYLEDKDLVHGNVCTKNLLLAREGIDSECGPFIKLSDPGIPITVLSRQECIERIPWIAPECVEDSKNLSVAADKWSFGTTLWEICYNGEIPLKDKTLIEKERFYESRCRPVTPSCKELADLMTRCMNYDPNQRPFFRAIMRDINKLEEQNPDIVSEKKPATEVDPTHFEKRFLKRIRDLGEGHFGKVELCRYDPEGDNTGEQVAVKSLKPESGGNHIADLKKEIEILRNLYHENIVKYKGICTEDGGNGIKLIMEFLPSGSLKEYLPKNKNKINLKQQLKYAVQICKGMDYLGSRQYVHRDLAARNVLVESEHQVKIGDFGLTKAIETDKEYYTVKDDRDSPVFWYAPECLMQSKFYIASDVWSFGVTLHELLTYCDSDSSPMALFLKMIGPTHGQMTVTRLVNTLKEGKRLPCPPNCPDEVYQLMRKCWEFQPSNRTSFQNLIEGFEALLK

| SMILES | GI50 [1] [µM] | JAK1 pStat6-Alexa647 Signal (JAK1) | JAK1 pStat6-Alexa647 Signal/Background (JAK1) | JAK3 pStat5-PE Signal (JAK3) | JAK3 pStat5-PE Signal/Background (JAK3) | GI50 (SYF/c-Src527F cell line) [µM] |
| --- | --- | --- | --- | --- | --- | --- |
| O=C(Cc1ccc(-c2ccccc2)cc1)NCc1cccc(F)c1 [Control A] |  | 23.79 | 5.69 | 4.12 | 1.41 |  |
| O=C(Cc1ccc(-c2ccc(OCCN3CCOCC3)cc2)cn1)NCc1ccccc1 [Control B] |  | 19.03 | 4.55 | 3.42 | 1.17 |  |
| c1ccc(CCSCc2ccc(-c3ccccc3)cc2)cc1 [Compound 135] | 9.7 | 17.15 | 4.10 | 3.48 | 1.19 | 18.6 |
| O=C(NCc1ccccc1)Oc1ccc(-c2ccccc2)cc1 [Compound 130] | 27.1 | 31.77 | 7.60 | 5.21 | 1.78 | 7.6 |
| O=S(=O)(Cc1ccc(-c2ccccc2)cc1)NCc1ccccc1 [Compound 138] | 13.9 | 28.65 | 6.85 | 4.10 | 1.40 | 1.4 |
| COc1cc2ncnc(Nc3ccc(O)cc3)c2cc1OC [WHI-P131] |  | 33.80 | 8.09 | 3.19 | 1.09 |  |
| COc1cc2ncnc(Nc3ccc(O)c(Br)c3)c2cc1OC [WHI-P154] |  | 14.54 | 3.48 | 1.63 | 0.56 |  |
| O=C(CCc1ccccc1)Cc1ccc(-c2ccccc2)cn1 [Compound 150] | 5.7 | 14.48 | 3.81 | 3.36 | 1.27 | 20.8 |
| O=S(=O)(Cc1ccc(Br)cc1)NCc1ccc(-c2ccccc2)cc1 [Compound 134] | 5.6 | 21.47 | 5.14 | 3.66 | 1.25 | 4.9 |
| O=C(Cc1ccccc1)NCc1ccc(OCc2ccccc2)cc1 [Compound 163] | 62.9 | 15.35 | 4.04 | 3.24 | 1.22 | 275 |

More lines, in order of falling GI50 [1], values ahead:

| GI50 [1] [µM] | JAK1 pStat6-Alexa647 Signal (JAK1) | JAK1 pStat6-Alexa647 Signal/Background (JAK1) | JAK3 pStat5-PE Signal (JAK3) | JAK3 pStat5-PE Signal/Background (JAK3) | SMILES | GI50 (SYF/c-Src527F cell line) [µM] |
| --- | --- | --- | --- | --- | --- | --- |
| 5.4 | 23.06 | 5.51 | 4.15 | 1.42 | O=C(NCc1ccccc1)Nc1ccc(-c2ccccc2)cn1 [Compound 129] | 24.7 |
| 3.3 | 18.81 | 4.50 | 3.38 | 1.15 | c1ccc(CNCCc2ccc(-c3ccccc3)cc2)cc1 [Compound 127] | 1.4 |
| 2.9 | 25.08 | 6.00 | 4.41 | 1.51 | O=S(=O)(CCc1ccccc1)Cc1ccc(-c2ccccc2)cc1 [Compound 139] | 2.2 |
| 2.8 | 30.85 | 7.38 | 5.34 | 1.82 | O=C(NCCc1ccc(-c2ccccc2)cc1)c1ccccc1 [Compound 126] | 3.1 |
| 2.1 | 13.76 | 3.62 | 3.02 | 1.14 | O=C(Cc1ccccc1)NCc1ccc(-c2ccccc2)cn1 [Compound 140] | 11.8 |
| 1.8 | 22.03 | 5.27 | 3.71 | 1.27 | [O-][S+](CCc1ccccc1)Cc1ccc(-c2ccccc2)cc1 (centres unmarked) [Compound 137] | 0.97 |
| 0.46 | 29.48 | 7.05 | 4.58 | 1.56 | O=C(Cc1ccccc1)NCc1ccc(-c2ccccc2)cc1 [Compound 125] | 0.75 |
| 0.27 |  |  |  |  | O=C(Cc1ccc(-c2ccccc2)cc1)NCc1cccc(F)c1 [drawing 586] | 0.46 |
| 0.026 |  |  |  |  | O=C(Cc1ccc(-c2ccc(OCCN3CCOCC3)cc2)cn1)NCc1ccccc1 [drawing 587] | 0.023 |
